# Experimental data as given in US8247211B2, “Glycopeptide antibiotics” (American Cyanamid Company, priority 2001, dated 2012).
# How the values were obtained:
# Enterococcus sp. = assay: In vitro antibacterial evaluation: minimum inhibitory concentration (MIC), broth dilution method; assay type: cell-based; settings: for MIC Enterococcus faecium (GC 4557): strain GC 4557; for MIC Enterococcus faecalis (ATCC 29212): strain ATCC 29212; for MIC Enterococcus faecalis (GC 4552): strain GC 4552
# How it was run: (§1)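 MIC by broth dilution in Mueller-Hinton II medium following NCCLS M7-A2. Inoculum was 5×10^5 CFU/mL and antibiotic was tested over 64-0.06 μg/mL. Gram-positive panel included clinical isolates resistant to methicillin, penicillin and/or vancomycin.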
# Escherichia coli = assay: as above; assay type: cell-based; settings: for MIC Escherichia coli (GC 4559): strain GC 4559
# How it was run: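 Using Muller-Hinton II […] and an inoculum of 5×10^5 CFU/mL, antibiotic dilutions from 64 down to 0.06 μg/mL were tested following NCCLS M7-A2. The MIC is the lowest concentration inhibiting growth, including in methicillin-, penicillin- or vancomycin-resistant clinical isolates.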
# Staphylococcus sp. = assay: as above; assay type: cell-based; settings: for MIC Coagulase Negative Staphylococcus (GC 4537): strain GC 4537; for MIC Coagulase Negative Staphylococcus (GC 4538): strain GC 4538; for MIC Staphylococcus aureus-SMITH (GC 4536): strain SMITH GC 4536
# How it was run: as §1
# Streptococcus sp. = assay: as above; assay type: cell-based
# How it was run: as §1
# [1] = system: Staphylococcus aureus-SMITH (GC 4543); assay: Acute lethal infection in mice (ED50); assay type: in vivo; settings: female CD-1 mice, intraperitoneal challenge, intravenous dose 30 min. after infection, 7 day survival ratios
# Method: The therapeutic effects of glycopeptide antibiotics of Formula I are determined against acute lethal infections with S. aureus (strain Smith), a penicillin resistant strain of S. pneumoniae (strain GC 1894), and a vancomycin resistant strain of E. fecalis (strain GC 6189 and GC 2246). Female mice, CD-1 (Charles River Laboratories), 20 +1-2 gm, are challenged by intraperitoneal injection of sufficient bacteria (suspended in Trypticase Soy Broth or hog gastric mucin) to kill non-treated controls within 24-48 hr. Antibacterial agents, contained in 0.2 mL of saline or 5% dextrose solution, are administered intravenously 30 min. after infection. Five mice are treated at each dose level. The 7 day survival ratios from 3 separate tests are pooled for calculation of median effective dose (ED50).
# [2] = broth dilution, 5×10^5 CFU/mL, 18 hours at 35° C.
# [3] = strain GC 4547, broth dilution, 18 hours at 35° C.
# [4] = broth dilution, 18 hours at 35° C.
# [5] = Streptococcus pneumoniae (GC 1894), broth dilution, 18 hours at 35° C.
smiles,measurement,setting,value
"CC(c1ccccc1)C1NC(=O)CNC(=O)C(CO)NC(=O)C(C(O)C2CNC(=N)N2C2OC(CO)C(O)C(O)C2O)NC(=O)C(C(O)C2CNC(=N)N2)NC(=O)C(Cc2ccc(OC3OC(CO)C(OC4OC5COC(c6ccc7c(c6)OCO7)OC5C(O)C4O)C(O)C3O)cc2)NC1=O (stereo not drawn) [Example 143, Cyclo[glycyl-β-methylphenylalanyl-O-[4-O-[4,6-O-(1,3-benzodioxol-5-ylmethylene)hexopyranosyl]hexopyranosyl]tyrosyl-3-(2-iminoimidazolidin-4-yl)seryl-3-(3-hexopyranosyl-2-iminoimidazolidin-4-yl)serylseryl]]",MIC Enterococcus faecalis (GC 2691),Enterococcus sp.; strain GC 2691,8 µg/mL
same,MIC Enterococcus faecium (GC 4557),Enterococcus sp.,2 to 8 µg/mL
same,MIC Escherichia coli (ATCC 25922),Escherichia coli; strain ATCC 25922,>64 µg/mL
same,MIC Escherichia coli (GC 4559),Escherichia coli,64 µg/mL
same,MIC Escherichi coli (GC 4560),Escherichia coli; strain GC 4560,1 to 2 µg/mL
same,MIC Coagulase Negative Staphylococcus (GC 4547),Staphylococcus sp.; [2],1 to 2 µg/mL
same,MIC Coagulase Negative Staphylococcus (GC 4548),Staphylococcus sp.; [2],1 to 2 µg/mL
same,MIC Coagulase Negative Staphylococcus (GC 4549),Staphylococcus sp.; [2],1 µg/mL
same,MIC Coagulase Negative Staphylococcus (GC 4551),Staphylococcus sp.; [2],2 to 4 µg/mL
same,MIC Coagulase Negative Staphylococcus (GC 6257),Staphylococcus sp.; [2],1 to 2 µg/mL
same,MIC Staphylococcus aureus (ATCC 29213),Staphylococcus sp.; [2],2 to 4 µg/mL
same,MIC Staphylococcus aureus (GC 1131),Staphylococcus sp.; [2],2 to 4 µg/mL
same,MIC Staphylococcus aureus (GC 3051),Staphylococcus sp.; [2],2 to 4 µg/mL
same,MIC Staphylococcus aureus (GC 3053),Staphylococcus sp.; [2],4 to 8 µg/mL
same,MIC Staphylococcus aureus (GC 4541),Staphylococcus sp.; [2],2 to 4 µg/mL
same,MIC Staphylococcus aureus (GC 4542),Staphylococcus sp.; [2],1 to 4 µg/mL
same,MIC Staphylococcus aureus (GC 4544),Staphylococcus sp.; [2],2 to 8 µg/mL
same,MIC Staphylococcus aureus (GC 4545),Staphylococcus sp.; [2],2 to 4 µg/mL
same,MIC Staphylococcus aureus-SMITH (GC 4543),Staphylococcus sp.; [2],2 to 4 µg/mL
same,MIC Staphylococcus haemolyticus (GC 4546),Staphylococcus sp.; [2],0.5 to 2 µg/mL
same,MIC Staphylococcus aureus (ATCC 29213),"Staphylococcus sp.; strain ATCC 29213, broth dilution, 18 hours at 35° C.",2 to 4 µg/mL
same,MIC Staphylococcus aureus (GC 1131),"Staphylococcus sp.; strain GC 1131, broth dilution, 18 hours at 35° C.",2 to 4 µg/mL
same,MIC Staphylococcus aureus (GC 3051),"Staphylococcus sp.; strain GC 3051, broth dilution, 18 hours at 35° C.",2 to 4 µg/mL
same,MIC Staphylococcus aureus (GC 3053),"Staphylococcus sp.; strain GC 3053, broth dilution, 18 hours at 35° C.",4 to 8 µg/mL
same,MIC Staphylococcus aureus (GC 4541),"Staphylococcus sp.; strain GC 4541, broth dilution, 18 hours at 35° C.",2 to 4 µg/mL
same,MIC Staphylococcus aureus (GC 4542),"Staphylococcus sp.; strain GC 4542, broth dilution, 18 hours at 35° C.",1 to 4 µg/mL
same,MIC Staphylococcus aureus-SMITH (GC 4543),"Staphylococcus sp.; strain GC 4543, broth dilution, 18 hours at 35° C.",2 to 4 µg/mL
same,MIC Staphylococcus aureus (GC 4544),"Staphylococcus sp.; strain GC 4544, broth dilution, 18 hours at 35° C.",2 to 8 µg/mL
same,MIC Staphylococcus aureus (GC 4545),"Staphylococcus sp.; strain GC 4545, broth dilution, 18 hours at 35° C.",2 to 4 µg/mL
same,MIC Staphylococcus haemolyticus (GC 4546),"Staphylococcus sp.; strain GC 4546, broth dilution, 18 hours at 35° C.",0.5 to 2 µg/mL
same,MIC Coagulase Negative Staphylococcus (GC 4547),Staphylococcus sp.; [3],1 to 2 µg/mL
same,MIC Coagulase Negative Staphylococcus (GC 4548),"Staphylococcus sp.; strain GC 4548, broth dilution, 18 hours at 35° C.",1 to 2 µg/mL
same,MIC Coagulase Negative Staphylococcus (GC 4549),"Staphylococcus sp.; strain GC 4549, broth dilution, 18 hours at 35° C.",1 µg/mL
same,MIC Coagulase Negative Staphylococcus (GC 4551),"Staphylococcus sp.; strain GC 4551, broth dilution, 18 hours at 35° C.",2 to 4 µg/mL
same,MIC Coagulase Negative Staphylococcus (GC 6257),"Staphylococcus sp.; strain GC 6257, broth dilution, 18 hours at 35° C.",1 to 2 µg/mL
same,MIC Streptococcus agalactiae (GC 4564),Streptococcus sp.; strain GC 4564,0.5 to 1 µg/mL
same,"median effective dose (ED50), Staphylococcus aureus-SMITH (GC 4543)",[1],0.28 mg/kg
"CCCCCCC(=O)OCC1OC(OC2C(CO)OC(Oc3ccc(CC4NC(=O)C(C(C)c5ccccc5)NC(=O)CNC(=O)C(CO)NC(=O)C(C(O)C5CNC(=N)N5C5OC(CO)C(O)C(O)C5O)NC(=O)C(C(O)C5CNC(=N)N5)NC4=O)cc3)C(O)C2O)C(O)C(O)C1O (stereo not drawn) [Example 97b, Cyclo[glycyl-β-methylphenylalanyl-O-[4-O-(6-O-heptanoylhexopyranosyl)hexopyranosyl]-tyrosyl-3-(2-iminoimidazolidin-4-yl)seryl-3-(3-hexopyranosyl-2-iminoimidazolidin-4-yl)-serylseryl]]",MIC Enterococcus faecalis (ATCC 29212),Enterococcus sp.,4 µg/mL
same,MIC Enterococcus faecalis (GC 2242),Enterococcus sp.; strain GC 2242,2 µg/mL
same,MIC Enterococcus faecalis (GC 4552),Enterococcus sp.,4 µg/mL
same,MIC Escherichia coli (GC 4559),Escherichia coli,32 µg/mL
same,MIC Escherichia coli (GC 4560),Escherichia coli; strain GC 4560,1 µg/mL
same,MIC Staphylococcus aureus (ATCC 29213),Staphylococcus sp.; [4],1 µg/mL
same,MIC Staphylococcus aureus (GC 1131),Staphylococcus sp.; [4],1 µg/mL
same,MIC Staphylococcus aureus (GC 4535),Staphylococcus sp.; [4],1 µg/mL
same,MIC Staphylococcus aureus SMITH (GC 4536),Staphylococcus sp.; [4],0.5 µg/mL
same,MIC Coagulase Negative Staphylococcus (GC 4537),Staphylococcus sp.,1 µg/mL
same,MIC Coagulase Negative Staphylococcus (GC 4537),Staphylococcus sp.; [4],1 µg/mL
same,MIC Coagulase Negative Staphylococcus (GC 4538),Staphylococcus sp.,1 µg/mL
same,MIC Coagulase Negative Staphylococcus (GC 4538),Staphylococcus sp.; [4],1 µg/mL
same,MIC Coagulase Negative Staphylococcus (GC 4547),Staphylococcus sp.; strain GC 4547,1 µg/mL
same,MIC Coagulase Negative Staphylococcus (GC 4547),Staphylococcus sp.; [3],1 µg/mL
same,MIC Staphylococcus aureus-SMITH (GC 4536),Staphylococcus sp.; [4],0.5 µg/mL
same,"median effective dose (ED50), Staphylococcus aureus-SMITH (GC 4543)",[1],8 mg/kg
"CC(c1ccccc1)C1NC(=O)CNC(=O)C(CO)NC(=O)C(C(O)C2CN(Cc3ccccc3)C(=NCc3ccccc3)N2C2OC(CO)C(O)C(O)C2O)NC(=O)C(C(O)C2CN(Cc3ccccc3)C(=NCc3ccccc3)N2Cc2ccccc2)NC(=O)C(Cc2ccc(OC3OC(CO)C(OC4OC(CO)C(O)C(O)C4O)C(O)C3O)cc2)NC1=O (stereo not drawn) [Example 62, Cyclo[glycyl-β-methylphenylalanyl-O-(4-O-hexopyranosylhexopyranosyl)tyrosyl-3-[1,3-dibenzyl-2-(benzylimino)imidazolidin-4-yl]seryl-3-[1-benzyl-2-(benzylimino)-3-hexopyranosylimidazolidin-4-yl]serylseryl]]",MIC Enterococcus faecium (GC 4557),Enterococcus sp.,64 µg/mL
same,MIC Escherichia coli (GC 4560),Escherichia coli; strain GC 4560,4 µg/mL
same,MIC Streptococcus pneumoniae (GC 1894),Streptococcus sp.; [5],64 µg/mL
same,MIC Streptococcus pneumoniae (GC 1894),Streptococcus sp.; strain GC 1894,64 µg/mL
same,"median effective dose (ED50), Staphylococcus aureus-SMITH (GC 4543)",[1],>8
"CCCCCC(=O)OCC1OC(OC2C(CO)OC(Oc3ccc(CC4NC(=O)C(C(C)c5ccccc5)NC(=O)CNC(=O)C(CO)NC(=O)C(C(O)C5CNC(=N)N5C5OC(CO)C(O)C(O)C5O)NC(=O)C(C(O)C5CNC(=N)N5)NC4=O)cc3)C(O)C2O)C(O)C(O)C1O (stereo not drawn) [Example 95b, Cyclo[glycyl-β-methylphenylalanyl-O-[4-O-(6-O-hexanoylhexopyranosyl)hexopyranosyl]-tyrosyl-3-[2-iminoimidazolidin-4-yl)seryl-3-(3-hexopyranosyl-2-iminoimidazolidin-4-yl)-serylseryl]]",MIC Enterococcus faecalis (GC 2242),"Enterococcus sp.; Enterococcus faecalis (GC 2242), broth dilution, 18 hours at 35° C.",8 µg/mL
same,MIC Enterococcus faecalis (ATCC 29212),Enterococcus sp.,4 µg/mL
same,MIC Enterococcus faecalis (GC 2242),Enterococcus sp.; strain GC 2242,8 µg/mL
same,MIC Enterococcus faecalis (GC 4552),Enterococcus sp.,8 µg/mL
same,MIC Escherichia coli (GC 4559),Escherichia coli,64 µg/mL
same,MIC Escherichia coli (GC 4560),Escherichia coli; strain GC 4560,<0.5 µg/mL
same,MIC Staphylococcus aureus (ATCC 29213),Staphylococcus sp.; [4],1 µg/mL
same,MIC Staphylococcus aureus (GC 1131),Staphylococcus sp.; [4],1 µg/mL
same,MIC Staphylococcus aureus (GC 4535),Staphylococcus sp.; [4],2 µg/mL
same,MIC Staphylococcus aureus SMITH (GC 4536),Staphylococcus sp.; [4],1 µg/mL
same,MIC Coagulase Negative Staphylococcus (GC 4537),Staphylococcus sp.,2 µg/mL
same,MIC Coagulase Negative Staphylococcus (GC 4538),Staphylococcus sp.,1 µg/mL
same,MIC Coagulase Negative Staphylococcus (GC 4547),Staphylococcus sp.; strain GC 4547,1 µg/mL
same,MIC Staphylococcus aureus-SMITH (GC 4536),Staphylococcus sp.; [4],1 µg/mL
same,"median effective dose (ED50), Staphylococcus aureus-SMITH (GC 4543)",[1],4 mg/kg
"CC(c1ccccc1)C1NC(=O)CNC(=O)C(CO)NC(=O)C(CC2CN(Cc3ccccc3)C(=NCc3ccccc3)N2C2OC(CO)C(O)C(O)C2O)NC(=O)C(CC2CN(Cc3ccccc3)C(=NCc3ccccc3)N2Cc2ccccc2)NC(=O)C(Cc2ccc(OC3OC(CO)C(OC4OC(CO)C(O)C(O)C4O)C(O)C3O)cc2)NC1=O (stereo not drawn) [Example 73, Cyclo[3-[1,3-benzyl-2-(benzylimino)imidazolidin-4-yl]alanyl-3-[1-benzyl-2-(benzylimino)-3-hexopyranosylimidazolidin-4-yl]alanylserylglycyl-β-methylphenylalanyl-O-(4-O-hexopyranosylhexopyranosyl)tyrosyl]]",MIC Escherichia coli (GC 4560),Escherichia coli; strain GC 4560,16 µg/mL
same,MIC Streptococcus pneumoniae (GC 1894),Streptococcus sp.; [5],64 µg/mL
same,MIC Streptococcus pneumoniae (GC 1894),Streptococcus sp.; strain GC 1894,64 µg/mL
same,"median effective dose (ED50), Staphylococcus aureus-SMITH (GC 4543)",[1],>8
